The compounds below were run against T1, hMC2 receptor (crude hMC2R membranes from CRE-bla-CHO-K1 cells stably expressing hMC2 receptor and hMRAP accessory protein) (Homo sapiens, UniProt Q01718) (assay: hMC2 membrane binding assay ([125I]ACTH (1-39) Tyr23, SPA)). Conditions: displacement of 0.2 nM [125I]ACTH (1-39) Tyr23 from hMC2R membranes, 1.5 hours at room temperature; read-out: MC2R binding potency.
T1 construct: crude membrane fractions
Outline: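 Ki values come from non-linear regression of SPA scintillation counts, with compounds displacing [125I]ACTH(1-39) Tyr23. Membranes come from CRE-bla-CHO-K1 cells stably expressing hMC2 receptor together with hMRAP. They are preincubated with WGA-coated PVT SPA beads in 50 mM HEPES pH 7.4 with 0.20% BSA, Mg2+, Ca2+ and protease inhibitors.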

T1 sequence (Q01718 whole entry): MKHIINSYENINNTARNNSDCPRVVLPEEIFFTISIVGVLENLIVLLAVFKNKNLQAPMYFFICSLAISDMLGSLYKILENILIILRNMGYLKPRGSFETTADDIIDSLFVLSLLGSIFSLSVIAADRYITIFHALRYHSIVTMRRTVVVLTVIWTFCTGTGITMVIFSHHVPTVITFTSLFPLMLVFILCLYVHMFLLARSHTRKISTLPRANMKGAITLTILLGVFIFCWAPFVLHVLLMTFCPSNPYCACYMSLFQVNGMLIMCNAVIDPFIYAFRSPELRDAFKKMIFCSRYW
T1 sequence (Q8TCY5 whole entry partner): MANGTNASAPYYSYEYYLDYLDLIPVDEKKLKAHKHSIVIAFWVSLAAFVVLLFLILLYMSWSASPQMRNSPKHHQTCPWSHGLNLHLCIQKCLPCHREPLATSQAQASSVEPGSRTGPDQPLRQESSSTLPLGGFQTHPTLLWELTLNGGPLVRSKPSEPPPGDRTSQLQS

Ki, < 10 nM:
CCOc1ccccc1-c1ccc(C2(C(=O)NC3CN(C)C3)CCN(c3ccc(C(F)(F)F)cc3C#N)CC2)cn1 [Compound 1-76, 1-[2-cyano-4-(trifluoromethyl)phenyl]-4-[6-(2-ethoxyphenyl)pyridin-3-yl]-N-(1-methylazetidin-3-yl)piperidine-4-carboxamide]
CCOc1ncccc1-c1ccc(C2(C(=O)N[C@@H]3CCNC3)CCN(c3ccc(C(F)(F)F)cc3C#N)CC2)nc1 [Compound 1-21, 1-[2-cyano-4-(trifluoromethyl)phenyl]-4-{2′-ethoxy-[3,3′-bipyridin]-6-yl}-N-[(3R)-pyrrolidin-3-yl]piperidine-4-carboxamide]
COc1ccccc1-c1ccc(C2(C(=O)NC[C@H]3CCN3)CCN(c3ccc(C(F)(F)F)cc3C#N)CC2)cn1 [Compound 1-236, N-{[(2R)-azetidin-2-yl]methyl}-1-[2-cyano-4-(trifluoromethyl)phenyl]-4-[6-(2-methoxyphenyl)pyridin-3-yl]piperidine-4-carboxamide]
CCOc1ccccc1-c1ccc(C2(C(=O)NCCN(C)C)CCN(c3ccc(C(F)(F)F)cc3F)CC2)cn1 [Compound 1-226, N-[2-(dimethylamino)ethyl]-4-[6-(2-ethoxyphenyl)pyridin-3-yl]-1-[2-fluoro-4-(trifluoromethyl)phenyl]piperidine-4-carboxamide]
COc1ccccc1-c1ccc(C2(C(=O)N[C@@H]3CN(C)C[C@H]3F)CCN(c3ccc(C(F)(F)F)cc3C#N)CC2)cn1 [Compound 1-243, 1-[2-cyano-4-(trifluoromethyl)phenyl]-N-[(3R,4R)-4-fluoro-1-methylpyrrolidin-3-yl]-4-[6-(2-methoxyphenyl)pyridin-3-yl]piperidine-4-carboxamide]
COc1sccc1-c1ccc(C2(C(=O)N[C@H]3CCN(C)C3)CCN(c3ccc(C(F)(F)F)cc3C#N)CC2)cn1 [Compound 1-119, 1-[2-cyano-4-(trifluoromethyl)phenyl]-4-[6-(2-methoxythiophen-3-yl)pyridin-3-yl]-N-[(3S)-1-methylpyrrolidin-3-yl]piperidine-4-carboxamide]
CN1CC[C@@H](NC(=O)C2(c3ccc(-c4ccccc4C#N)nc3)CCN(c3ccc(C(F)(F)F)cc3C#N)CC2)C1 [Compound 1-78, 1-[2-cyano-4-(trifluoromethyl)phenyl]-4-[6-(2-cyanophenyl)pyridin-3-yl]-N-[(3R)-1-methylpyrrolidin-3-yl]piperidine-4-carboxamide]
CCOc1c(F)cccc1-c1ccc(C2(C(=O)N[C@@H]3CCN(C)C3)CCN(c3ccc(C(F)(F)F)cc3C#N)CC2)cn1 [Compound 1-72, 1-[2-cyano-4-(trifluoromethyl)phenyl]-4-[6-(2-ethoxy-3-fluorophenyl)pyridin-3-yl]-N-[(3R)-1-methylpyrrolidin-3-yl]piperidine-4-carboxamide]
COc1ccccc1-c1ncc(C2(NC(=O)O[C@H]3CCN(C)C3)CCN(c3ccc(C(F)(F)F)cc3C#N)CC2)cc1F [Compound 2-49, (3S)-1-methylpyrrolidin-3-yl N-{1-[2-cyano-4-(trifluoromethyl)phenyl]-4-[5-fluoro-6-(2-methoxyphenyl)pyridin-3-yl]piperidin-4-yl}carbamate]
C[C@@H](CN(C)C)NC(=O)C1(c2ccc(-c3cccn3C)nc2)CCN(c2ccc(C(F)(F)F)cc2C#N)CC1 [Compound 1-261, 1-[2-cyano-4-(trifluoromethyl)phenyl]-N-[(2S)-1-(dimethylamino)propan-2-yl]-4-[6-(1-methyl-1H-pyrrol-2-yl)pyridin-3-yl]piperidine-4-carboxamide]
CCOc1ncccc1-c1ccc(C2(C(=O)N[C@@H]3CCN(C)C3)CCN(c3ccc(C(F)(F)F)cc3C#N)CC2)nn1 [Compound 1-57, 1-[2-cyano-4-(trifluoromethyl)phenyl]-4-[6-(2-ethoxypyridin-3-yl)pyridazin-3-yl]-N-[(3R)-1-methylpyrrolidin-3-yl]piperidine-4-carboxamide]
CCOc1ncccc1-c1ccc(C2(NC(=O)[C@@H]3CCNC3)CCN(c3ccc(C(F)(F)F)cc3C#N)CC2)cn1 [Compound 2-6, (3R)—N-{1-[2-cyano-4-(trifluoromethyl)phenyl]-4-{2′-ethoxy-[2,3′-bipyridin]-5-yl}piperidin-4-yl}pyrrolidine-3-carboxamide]
CCOc1ncccc1-c1ccc(C2(C(=O)N[C@H]3CCN(C)C3)CCN(c3ccc(C(F)(F)F)nc3C#N)CC2)cn1 [Compound 1-26, 1-[2-cyano-6-(trifluoromethyl)pyridin-3-yl]-4-{2′-ethoxy-[2,3′-bipyridin]-5-yl}-N-[(3S)-1-methylpyrrolidin-3-yl]piperidine-4-carboxamide]
COc1ccccc1-c1ccc(C2(C(=O)NC[C@@H]3C[C@@H](F)CN3C)CCN(c3ccc(C(F)(F)F)cc3C#N)CC2)cn1 [Compound 1-250, 1-[2-cyano-4-(trifluoromethyl)phenyl]-N-{[(2S,4R)-4-fluoro-1-methylpyrrolidin-2-yl]methyl}-4-[6-(2-methoxyphenyl)pyridin-3-yl]piperidine-4-carboxamide]
COc1ccccc1-c1ccc(C2(C(=O)N[C@@H]3CNC[C@H]3F)CCN(c3ccc(C(F)(F)F)cc3C#N)CC2)cn1 [Compound 1-238, 1-[2-cyano-4-(trifluoromethyl)phenyl]-N-[(3R,4R)-4-fluoropyrrolidin-3-yl]-4-[6-(2-methoxyphenyl)pyridin-3-yl]piperidine-4-carboxamide]
CCOc1ncccc1-c1ccc(C2(C(=O)NCCNC)CCN(c3ccc(C(F)(F)F)cc3F)CC2)cn1 [Compound 1-223, 4-{2′-ethoxy-[2,3′-bipyridin]-5-yl}-1-[2-fluoro-4-(trifluoromethyl)phenyl]-N-[2-(methylamino)ethyl]piperidine-4-carboxamide]

From patent publication US12492181B2, “Gem-disubstituted piperidine melanocortin subtype-2 receptor (MC2R) antagonists and uses thereof” (Crinetics Pharmaceuticals, Inc., priority 2019, dated 2025)
